{"source": "patent US12016860B2", "about": "“Combination therapies with Cbl-b inhibitor compounds” (Nurix Therapeutics, Inc., priority 2021, dated 2024)", "key": {"4T1 tumors": {"system": "4T1 tumors", "assay": "4T1 metastatic breast carcinoma survival model with primary tumor resection", "type": "in vivo, mice", "source_text": "Another in vivo study evaluated the ability of compound 23 treatment, started before the primary tumor resection, to eradicate 4T1 breast carcinoma metastatic disease. The 4T1 triple negative mammary carcinoma is a transplantable tumor cell line that is highly tumorigenic and invasive and, unlike most tumor models, spontaneously metastasizes from a primary tumor growing in the mammary gland to multiple distant sites including lymph nodes, blood, liver, lung, brain, and bone. Tumor cells are easily transplanted into the mammary glands so that the primary tumor grows in the anatomically relevant site. The progressive spread of 4T1 metastases to other organs is very similar to that of human mammary cancer. Animals die from disseminated metastatic disease regardless of resection of the primary tumor (Pulaski et al., 2000, Current Protocols in Immunology 39(1):20.2.1-20.2.16). […] Beginning on Day 7, tumor volumes were measured twice weekly until they reached a mean tumor volume of 145 mm^3 when the primary tumors were resected on Day 14 and 15 (dotted line). Median survival time were calculated for each group and body weights were monitored until the end of the study on Day 140. Body weights were measured twice weekly then once weekly starting Day 47. […] Statistical significance of differences in conditional survival between groups was evaluated using the Log-rank (Mantel-Cox) test. […] Median survival is reported as undefined for the compound 23 group, as survival exceeds 50% at Day 140."}, "CT26 tumors [1]": {"system": "CT26 tumors", "assay": "nCounter Mouse PanCancer Immune Profiling of CT26 tumors from treated mice", "type": "in vivo", "source_text": "In this example, the gene expression changes induced in tumors from mice treated with compound 23 studies were investigated. To perform this assessment, the nCounter PanCancer Immune Profiling Panel was used, which is a multiplexed gene expression panel developed by NanoString Technologies that measures expression of 770 immune and cancer related genes (Eastel et al., 2019, Expert Review of Molecular Diagnostics, 19(7):591-598). This technology is a unique gene expression tool that covers many important features of the immune response in the tumor microenvironment and was used to facilitate the understanding of immune related changes in tumors treated with compound 23.\nIn FIG. 4A, CT26 tumors were harvested after 4 doses and after 19 doses of compound 23 or vehicle and gene expression was directly measured using the nCounter Mouse PanCancer Immune Profiling Panel. Analysis was performed using the nSolver 4.0 and the nCounter Advanced Analysis software comparing gene expression in compound 23 to vehicle treated tumors. […] Statistical significance of differences in mean cell type scores between compound 23 and vehicle treated groups was evaluated using Mann-Whitney test (*P≤0.05, **P≤0.01, and ***P≤0.001).\n(§1) In FIG. 4B, CT26 tumors were harvested after 4 treatment doses and gene expression was directly measured using the nCounter Mouse PanCancer Immune Profiling Panel. Analysis was performed using the nSolver 4.0 and the nCounter Advanced Analysis software comparing gene expression in compound 23 to vehicle treated tumors. As indicated in the titles above each panel, scatter plots of individual Pathway Signature Scores of vehicle and compound 23 treated tumors are shown. Statistical significance of differences in Pathway Signature Scores between compound 23 and vehicle treated groups was evaluated using Mann-Whitney test (*P≤0.05, **P≤0.01, and ***P≤0.001).\nas §1, with “FIG. 4C,” for “FIG. 4B,”, “after 19” for “after 4”"}, "CT26 tumors [2]": {"system": "CT26 tumors", "assay": "CT26 tumor model with depleting antibodies for CD4+, CD8+ or NK cells", "type": "in vivo, mice", "conditions": "30 mg/kg PO QD Day 9 to 25", "experimental": "Tumor volume at Day 25 is indicated. CD8+ T-cell or NK cell depletion abrogates compound 23 activity. Stats were calculated with Mann-Whitney (Vehicle vs. compound 23) or one-way ANOVA with Dunn's multiple comparisons test (compound 23 vs. Depletion groups); (*P≤0.05, **P≤0.01, ****P≤0.0001). The efficacy of compound 23 on tumors is CD8+ T function and on NK cell function."}, "CT26 tumors [3]": {"system": "CT26 tumors", "assay": "CT26 model, combination with anti-PD-1 antibody", "type": "in vivo, mice", "experimental": "(§2) This example provides assays and results for treating tumor models in vivo with combinations of Cbl-b compounds and anti-PD1 antibodies as described herein. The antibody is a mouse anti-PD1 RMP1-14 antibody, useful in mouse in vivo assays as model for administration of human PD-1 axis antagonists for treatment of human cancer.\nFIG. 6 provides results in three tumor models. […] Beginning on Day 10, tumor volumes were measured twice weekly."}, "MC38 tumors": {"system": "MC38 tumors", "assay": "MC38 model, combination with anti-PD-1 antibody", "type": "in vivo, mice", "experimental": "as §2\nBeginning on Day 10, tumor volumes were measured twice weekly."}, "orthotopic 4T1 tumors": {"system": "orthotopic 4T1 tumors", "assay": "Flow cytometry of tumor and blood CD8+ T-cells in 4T1-tumor-bearing mice", "type": "in vivo", "conditions": "Day 28"}, "Raji cells [4]": {"system": "Raji cells", "assay": "Raji model in SCID mice with NK cell depletion (anti-asialo-GM1)", "type": "in vivo", "conditions": "p<0.0001", "experimental": "Three additional groups of mice were treated in the presence of depleting antibodies for NK cells (anti-asialo-GM1)."}, "Raji cells [5]": {"system": "Raji cells", "assay": "Raji human non-Hodgkin's lymphoma model in SCID mice, combination with rituximab", "method": "Female CB17 mice with severe combined immunodeficiency (SCID) were intravenously (IV) injected in the tail vein with Raji cells on Day 0 and treated from Day 5 to Day 37 by administration of either: vehicle (0.5% methylcellulose, 0.2% Polysorbate 80 in deionized water+1 eq HCl) daily, orally (PO) or compound 23 at 30 mg/kg daily, PO. Anti-CD20 antibody (rituximab) at 20 mg/kg was intraperitoneally (IP) administered on Day 5, 10, and 15, either alone or in combination with compound 23 at 30 mg/kg daily, PO."}, "[6]": {"conditions": "blood of 4T1-tumor-bearing mice"}}, "data": [{"smiles": "C[C@H]1CCCN(Cc2cc3c(c(C(F)(F)F)c2)CN(c2cccc([C@]4(c5nncn5C)C[C@@H](C)C4)c2)C3=O)C1", "note": "[compound 23]", "values": [{"measurement": "median survival time compared to vehicle control", "setting": "4T1 tumors; 30 mg/kg daily PO Day 8 to 46, primary tumors resected Day 14 and 15", "result": "significantly increased"}, {"measurement": "median survival", "setting": "4T1 tumors; 30 mg/kg daily PO, study end Day 140", "result": "undefined"}, {"measurement": "anti-tumor activity", "setting": "4T1 tumors; oral administration in mice, metastatic triple negative breast tumor model 4T1", "result": "significant anti-tumor activity"}, {"measurement": "T-cell, B cell, NK cell and adaptive immune function pathway scores", "setting": "CT26 tumors [1]; after 4 doses", "result": "not significant"}, {"measurement": "gene expression in innate immune signaling pathways (dendritic cell function, macrophage function, chemokine receptors and pathways)", "setting": "CT26 tumors [1]; after 4 doses", "result": "significant gene expression changes"}, {"measurement": "cytotoxic cell infiltration score", "setting": "CT26 tumors [1]; after 4 doses, 30 mg/kg daily PO, vs vehicle, P=0.1061", "result": "clear trend of increased infiltration"}, {"measurement": "infiltration of tumor infiltrating lymphocytes (TIL) score", "setting": "CT26 tumors [1]; after 4 doses, 30 mg/kg daily PO, vs vehicle, P=0.6679", "result": "clear trend of increased infiltration"}, {"measurement": "T-cell infiltration score", "setting": "CT26 tumors [1]; after 4 doses, 30 mg/kg daily PO, vs vehicle, P=0.7551", "result": "clear trend of increased infiltration"}, {"measurement": "immune related pathway scores", "setting": "CT26 tumors [1]; after 19 doses", "result": "significantly enhanced function"}, {"measurement": "cytotoxic cell infiltration score", "setting": "CT26 tumors [1]; after 19 doses PO, vs vehicle, P=0.0002", "result": "significant increases"}, {"measurement": "TIL infiltration score", "setting": "CT26 tumors [1]; after 19 doses PO, vs vehicle, P=0.0044", "result": "significant increases"}, {"measurement": "T-cell infiltration score", "setting": "CT26 tumors [1]; after 19 doses PO, vs vehicle, P=0.0098", "result": "significant increases"}, {"measurement": "effect of CD8+ T-cell depletion on compound activity (tumor volume at Day 25)", "setting": "CT26 tumors [2]", "result": "abrogates"}, {"measurement": "effect of NK cell depletion on compound activity (tumor volume at Day 25)", "setting": "CT26 tumors [2]; anti-asialo-GM1", "result": "abrogates"}, {"measurement": "interaction with PD-1 antibody blockade", "setting": "CT26 tumors [3]", "result": "synergizes"}, {"measurement": "TGI", "setting": "CT26 tumors [3]; compared to vehicle controls, compound 23 30 mg/kg daily PO, anti-PD-1 10 mg/kg twice weekly IP", "result": 62, "unit": "%"}, {"measurement": "tumor volume compared to vehicle controls", "setting": "CT26 tumors [3]; compound 23 30 mg/kg daily PO", "result": "significantly reduced tumor volume"}, {"measurement": "median survival time", "setting": "CT26 tumors [3]; compound 23 30 mg/kg daily PO, anti-PD-1 10 mg/kg twice weekly IP, controls 27 days", "result": 38, "unit": "days"}, {"measurement": "interaction with PD-1 antibody blockade", "setting": "MC38 tumors", "result": "synergizes"}, {"measurement": "primary tumor volume", "setting": "MC38 tumors; single agents vs vehicle, combination vs vehicle or either single agent", "result": "significantly smaller primary tumors"}, {"measurement": "frequency of tumor gp70 antigen-specific CD8+ T-cells (AH1 Dextramer+CD8+)", "setting": "orthotopic 4T1 tumors; 4T1 tumors, 30 mg/kg daily PO", "result": "increased"}, {"measurement": "frequency of tumor gp70 antigen-specific CD8+ T-cells with exhaustion phenotype (PD-1+ LAG3+)", "setting": "orthotopic 4T1 tumors; 4T1 tumors, 30 mg/kg daily PO", "result": "decreased"}, {"measurement": "frequency of circulating CD8+ T-cells with activated phenotype (PD-1+)", "setting": "orthotopic 4T1 tumors; [6]", "result": "increased"}, {"measurement": "frequency of circulating CD8+ T-cells with memory phenotype (CD44+CD27+CD127+)", "setting": "orthotopic 4T1 tumors; [6]", "result": "increased"}, {"measurement": "effect of NK cell depletion on activity (survival)", "setting": "Raji cells [4]", "result": "abrogates"}, {"measurement": "survival compared to untreated mice", "setting": "Raji cells [5]; compound 23 30 mg/kg daily PO, rituximab 20 mg/kg IP Day 5, 10, 15, p<0.0001", "result": "significantly higher"}, {"measurement": "survival compared to mice treated with the combination of compound 23 and rituximab", "setting": "Raji cells [5]; p<0.0001", "result": "significantly lower"}]}]}
